Reference: ChEMBL document CHEMBL1151041, “Synthesis and antitumor evaluation of 2-oxycarbonylpaclitaxels (paclitaxel-2-carbonates)” (Bioorg Med Chem Lett, 1994)
pIC50: −log10 of the molar value. Calls of active or inactive are those of the source. The calls are words filed in the database; no cut-off is given here.

Key:
HCT-116 = assay: Compound was tested for its cytotoxicity against human colon cancer cell line HCT116; format: functional, cell-based
M109 [1] = assay: In vivo antitumor activity expressed as percent median survival time of treated mice to saline treated mice against murine lung carcinoma M109 at 90 mg/kg (ip) on days 5 and 8; format: functional, Mus musculus
Rattus norvegicus [2] = species: Rattus norvegicus; assay: Tested for tubulin polymerization assay in rat; Inactive; format: functional, organism-based
Rattus norvegicus [3] = species: Rattus norvegicus; assay: Tested to promote microtubule assembly by tubulin polymerization assay in rat plasma at 37 degree C for 18 hr; Active; format: functional, organism-based
M109 [4] = assay: In vivo antitumor activity expressed as percent median survival time of treated mice to saline treated mice against murine lung carcinoma M109 at 90 mg/kg (ip) on days 1, 5 and 9; format: functional, Mus musculus
M109 [5] = assay: In vivo antitumor activity expressed as percent median survival time of treated mice to saline treated control against murine lung carcinoma M109 at 50 mg/kg (ip) on days 5 and 8 reference to 3c; format: functional, Mus musculus
M109 [6] = assay: In vivo antitumor activity expressed as percent median survival time of treated mice to saline treated mice against murine lung carcinoma M109 at 30 mg/kg (ip) on days 1, 5 and 9 reference to 3b; format: functional, Mus musculus
M109 [7] = assay: In vivo antitumor activity expressed as percent median survival time of treated mice to saline treated mice against murine lung carcinoma M109 at 30 mg/kg (ip) on days 1, 5 and 9 reference to 3d; format: functional, Mus musculus
M109 [8] = assay: In vivo antitumor activity expressed as percent median survival time of treated mice to saline treated mice against murine lung carcinoma M109 at 30 mg/kg (ip) on days 1, 5 and 9 reference to 3f; format: functional, Mus musculus
M109 [9] = assay: In vivo antitumor activity expressed as percent median survival time of treated mice to saline treated mice against murine lung carcinoma M109 at 50 mg/kg (ip) on days 1, 5 and 9 reference to 3e; format: functional, Mus musculus
M109 [10] = assay: In vivo antitumor activity expressed as percent median survival time of treated mice to saline treated mice against murine lung carcinoma M109 at 75 mg/kg (ip) on days 5 and 8 reference to 3a; format: functional, Mus musculus
M109 [11] = assay: In vivo antitumor activity expressed as percent median survival time of treated mice to saline treated mice against murine lung carcinoma M109 at 75 mg/kg (ip) on days 5 and 8 reference to 3g; format: functional, Mus musculus
M109 [12] = assay: In vivo antitumor activity expressed as percent median survival time of treated mice to saline treated mice against murine lung carcinoma M109 at 75 mg/kg (ip) on days 5 and 8 reference to 3h; format: functional, Mus musculus
M109 [13] = assay: In vivo antitumor activity expressed as percent median survival time of treated mice to saline treated mice against murine lung carcinoma M109 at 75 mg/kg (ip) on days 5 and 8 reference to 3i; format: functional, Mus musculus

Row | SMILES | pIC50 (HCT-116) | T/C (M109 [1]) | Activity (Rattus norvegicus [2]) | T/C (M109 [4]) | other results
1 | CC(=O)O[C@H]1C(=O)[C@@]2(C)C([C@H](OC(=O)c3ccccc3)[C@]3(O)C[C@H](OC(=O)[C@H](OC(=O)Oc4cccc(N(C)C)c4)[C@@H](NC(=O)c4ccccc4)c4ccccc4)C(C)=C1C3(C)C)[C@]1(OC(C)=O)COC1C[C@@H]2O (stereo partly specified) | 7.80 | 226% | inactive | – | –
2 | COC(=O)O[C@@H](C(=O)O[C@H]1C[C@@]2(O)[C@@H](OC(=O)c3ccccc3)C3[C@]4(OC(C)=O)COC4C[C@H](O)[C@@]3(C)C(=O)[C@H](OC(C)=O)C(=C1C)C2(C)C)[C@@H](NC(=O)c1ccccc1)c1ccccc1 (stereo partly specified) | < 7.10 | 162% | – | – | Activity (Rattus norvegicus [3]): Active
3 | CC(=O)O[C@H]1C(=O)[C@@]2(C)C([C@H](OC(=O)c3ccccc3)[C@]3(O)C[C@H](OC(=O)[C@H](OC(=O)OC(C)C)[C@@H](NC(=O)c4ccccc4)c4ccccc4)C(C)=C1C3(C)C)[C@]1(OC(C)=O)COC1C[C@@H]2O (stereo partly specified) | < 7.10 | 247% | inactive | – | –
4 | CCOC(=O)O[C@@H](C(=O)O[C@H]1C[C@@]2(O)[C@@H](OC(=O)c3ccccc3)C3[C@]4(OC(C)=O)COC4C[C@H](O)[C@@]3(C)C(=O)[C@H](OC(C)=O)C(=C1C)C2(C)C)[C@@H](NC(=O)c1ccccc1)c1ccccc1 (stereo partly specified) | 7.52 | – | – | >475% | Activity (Rattus norvegicus [3]): Active
5 | C=C(C)OC(=O)O[C@@H](C(=O)O[C@H]1C[C@@]2(O)[C@@H](OC(=O)c3ccccc3)C3[C@]4(OC(C)=O)COC4C[C@H](O)[C@@]3(C)C(=O)[C@H](OC(C)=O)C(=C1C)C2(C)C)[C@@H](NC(=O)c1ccccc1)c1ccccc1 (stereo partly specified) | > 7.82 | 235% | inactive | – | –
6 | CC(=O)O[C@H]1C(=O)[C@@]2(C)C([C@H](OC(=O)c3ccccc3)[C@]3(O)C[C@H](OC(=O)[C@H](OC(=O)OCc4ccccc4)[C@@H](NC(=O)c4ccccc4)c4ccccc4)C(C)=C1C3(C)C)[C@]1(OC(C)=O)COC1C[C@@H]2O (stereo partly specified) | 7.52 | – | inactive | 310% | –
7 | CC(=O)O[C@H]1C(=O)[C@@]2(C)C([C@H](OC(=O)c3ccccc3)[C@]3(O)C[C@H](OC(=O)[C@H](OC(=O)OCCl)[C@@H](NC(=O)c4ccccc4)c4ccccc4)C(C)=C1C3(C)C)[C@]1(OC(C)=O)COC1C[C@@H]2O (stereo partly specified) | 7.52 | – | inactive | 275% | –
8 | CC(=O)O[C@H]1C(=O)[C@@]2(C)[C@H]([C@H](OC(=O)c3ccccc3)[C@]3(O)C[C@H](OC(=O)[C@H](O)[C@@H](NC(=O)c4ccccc4)c4ccccc4)C(C)=C1C3(C)C)[C@]1(OC(C)=O)CO[C@@H]1C[C@@H]2O [PACLITAXEL] | – | – | – | – | T/C (M109 [5]): 197%; T/C (M109 [6]): 275%; T/C (M109 [7]): 275%; T/C (M109 [8]): 275%; T/C (M109 [9]): 270%; T/C (M109 [10]): 276%; T/C (M109 [11]): 262%; T/C (M109 [12]): 262%; T/C (M109 [13]): 262%
9 | C=COC(=O)O[C@@H](C(=O)O[C@H]1C[C@@]2(O)[C@@H](OC(=O)c3ccccc3)C3[C@]4(OC(C)=O)COC4C[C@H](O)[C@@]3(C)C(=O)[C@H](OC(C)=O)C(=C1C)C2(C)C)[C@@H](NC(=O)c1ccccc1)c1ccccc1 (stereo partly specified) | 7.40 | – | inactive | >475% | –
10 | CC(=O)O[C@H]1C(=O)[C@@]2(C)C([C@H](OC(=O)c3ccccc3)[C@]3(O)C[C@H](OC(=O)[C@H](OC(=O)Oc4ccccc4)[C@@H](NC(=O)c4ccccc4)c4ccccc4)C(C)=C1C3(C)C)[C@]1(OC(C)=O)COC1C[C@@H]2O (stereo partly specified) | 8.15 | 203% | inactive | – | –
